Reference: article PMC2867455 (Journal of medicinal chemistry, 2010)

Key:
PFTase [1] = molecular target: T1, PFTase (Saccharomyces cerevisiae, UniProt P22007+P29703); test: PFTase in vitro continuous-fluorescence assay; assay type: biochemical
T1 sequence (P22007 1-431): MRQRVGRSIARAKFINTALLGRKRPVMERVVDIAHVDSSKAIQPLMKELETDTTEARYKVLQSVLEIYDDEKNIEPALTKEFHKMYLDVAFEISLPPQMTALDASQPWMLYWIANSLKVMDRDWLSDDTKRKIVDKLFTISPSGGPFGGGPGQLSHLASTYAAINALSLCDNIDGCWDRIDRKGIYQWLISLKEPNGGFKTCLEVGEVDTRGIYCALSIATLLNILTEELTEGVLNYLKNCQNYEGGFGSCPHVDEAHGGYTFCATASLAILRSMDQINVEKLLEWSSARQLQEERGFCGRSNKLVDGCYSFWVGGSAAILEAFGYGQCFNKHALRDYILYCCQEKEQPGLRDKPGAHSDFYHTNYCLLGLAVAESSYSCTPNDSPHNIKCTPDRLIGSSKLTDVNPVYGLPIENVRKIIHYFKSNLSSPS
T1 sequence (P29703 1-316): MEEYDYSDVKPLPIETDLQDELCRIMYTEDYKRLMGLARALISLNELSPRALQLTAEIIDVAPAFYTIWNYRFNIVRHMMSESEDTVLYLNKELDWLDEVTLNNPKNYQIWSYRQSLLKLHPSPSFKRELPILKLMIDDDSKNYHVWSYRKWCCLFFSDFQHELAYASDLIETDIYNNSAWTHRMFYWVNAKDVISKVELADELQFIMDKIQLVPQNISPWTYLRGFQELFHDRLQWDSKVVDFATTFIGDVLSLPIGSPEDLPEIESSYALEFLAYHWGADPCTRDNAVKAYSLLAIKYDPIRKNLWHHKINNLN

GFP-H-Ras = test: Cell based analysis of GFP-H-Ras processing in MDCK cells
PFTase [2] = conditions: read-out: IC50 for PFTase; cited from earlier work
[3] = tested on: mouse models of leukemia and melanoma; conditions: intra-peritoneal delivery; cited from earlier work
[4] = at concentrations as high as 100 µM, 0.04% Triton X-100

In the case of Tetraiodophenolphthalein [TPIT], the “PFTase inhibition (in words)” value (PFTase [1]; continuous fluorescence assay) is reported as “not an inhibitor of PFTase”.

With `CC(=O)N1CCN(c2ccc(OCC3COC(Cn4ccnc4)(c4ccc(Cl)cc4Cl)O3)cc2)CC1` (stereo not shown) [Ketoconazole] the “PFTase inhibition (in words)” value (PFTase [1]; [4]) was “little to no inhibition”.

In the case of `OC(Cn1cncn1)(Cn1cncn1)c1ccc(F)cc1F` [Fluconazole], the “PFTase inhibition (in words)” value (PFTase [1]; [4]) is reported as “little to no inhibition”.

In the case of `Clc1ccccc1C(c1ccccc1)(c1ccccc1)n1ccnc1` [Clotrimazole], the “PFTase inhibition (in words)” value (PFTase [1]; [4]) is reported as “little to no inhibition”.

In the case of `CCOC(=O)N1CCC(=C2c3ccc(Cl)cc3CCc3cccnc32)CC1` [Loratadine], the “inhibition of GFP-H-Ras processing” value (GFP-H-Ras; 25 µM, 24 h) is reported as “appreciable inhibition of GFP-H-Ras processing” and the “inhibition of prenylation (GFP-H-Ras)” value (GFP-H-Ras; concentrations lower than 25 µM, 24 h) is reported as “did not manifest observable inhibition of prenylation”.

For `CC(=O)OCC(=O)[C@@]1(O)CC[C@H]2[C@@H]3CCC4=CC(=O)CC[C@]4(C)[C@H]3C(=O)C[C@@]21C` [Cortisone acetate], the IC50 (PFTase [2]) is given as 14 µM.

In the case of `Clc1ccc(COC(Cn2ccnc2)c2ccc(Cl)cc2Cl)c(Cl)c1` (stereo not shown) [Miconazole], the “inhibition of GFP-H-Ras processing” value (GFP-H-Ras; 10 µM, 48 h, cells remaining alive) is listed as “significant inhibition of GFP-H-Ras processing”, the toxicity to cells (MDCK cells) is listed as “toxicity and cell death” and the “survival in mouse models of leukemia and melanoma” value [3] is listed as “promote survival”.
